# From patent US12048680B2, “Use of Gemfibrozil and derivative thereof for treatment and/or prevention of neurodegenerative disease” (Kunming Institute of Zoology Chinese Academy of Sciences, priority 2018, dated 2024)
# Tests used:
# hippocampal neurons = assay: Golgi staining, dendritic spine density in mouse brain neurons; type: in vivo; details: hippocampal neurons of APP/PS1ΔE9 mice treated for 2 months (C-D in FIG. 3)
# Method: Gemfibrozil was administered to 8-month-old APP/PS1ΔE9 mice (male and female halves). Gemfibrozil was first dissolved in dimethyl sulfoxide (DMSO) at a concentration of 50 mg/mL, and then diluted to a final concentration of 50 μg/mL with mouse drinking water to obtain a drug solution. The mice in the administration group were allowed to freely drink the drug solution containing gemfibrozil, in which the final concentration of DMSO in the solution was 0.1%; and the mice in the control group were allowed to drink water containing 0.1% DMSO freely. All drinking devices contained with Gemfibrozil were wrapped in aluminum foil to prevent decomposition by exposure. During dosing, the drug solution was replaced every 2 days. Mice were measured daily for water consumption. After 2 months of dosing, all mice were subjected to behavioural experiments. Mice were placed in the laboratory to be behaviourally tested one hour prior to the start of daily behavioural studies, and all behavioural experiments were completed between 9 and 17 o'clock. All experiments involving animals were approved by Animal Ethics Committee of the Kunming Institute of Zoology, CAS. 7. […]
# soluble Aβ = assay: Western blot of soluble Aβ in mouse brain tissue; type: in vivo
# Method: Gemfibrozil was administered to 8-month-old APP/PS1ΔE9 mice (male and female halves). Gemfibrozil was first dissolved in dimethyl sulfoxide (DMSO) at a concentration of 50 mg/mL, and then diluted to a final concentration of 50 μg/mL with mouse drinking water to obtain a drug solution. The mice in the administration group were allowed to freely drink the drug solution containing gemfibrozil, in which the final concentration of DMSO in the solution was 0.1%; and the mice in the control group were allowed to drink water containing 0.1% DMSO freely. All drinking devices contained with Gemfibrozil were wrapped in aluminum foil to prevent decomposition by exposure. During dosing, the drug solution was replaced every 2 days. Mice were measured daily for water consumption. After 2 months of dosing, all mice were subjected to behavioural experiments. Mice were placed in the laboratory to be behaviourally tested one hour prior to the start of daily behavioural studies, and all behavioural experiments were completed between 9 and 17 o'clock. All experiments involving animals were approved by Animal Ethics Committee of the Kunming Institute of Zoology, CAS.
# 4. Expression of Related Proteins by Western Blot
# The specific steps were as follows:
# 1) Extracting protein: the protein was extracted from the mouse brain tissue using western and an IP lysate from Beyotime Biotechnology.
# 2) Determining protein concentration: HM and U251-APP cells and mouse brain proteins were measured using a BCA protein quantification kit, and the extracted proteins were used for subsequent detection.
# 3) Pretreatment before loading: each sample was loaded at 20 μg depending on the protein concentration. The protein denaturant anhydrous mercaptoethanol was first added to denature the proteins at 95° C. for 6 minutes. After denaturation, the sample was placed on ice and stood for 5 minutes.
# 4) Loading and performing ectrophoresis: the denatured protein samples were loaded to the corresponding wells to start electrophoresis.
# 5) Membrane transfer treatment: according to the ratio of the reagent required by 1 L of a membrane transfer solution (10× membrane transfer solution: anhydrous methanol:water=1:2:7), a certain amount of the membrane transfer solution was prepared, the sponge and filter paper were immersed in the membrane transfer solution, and the PVDF membrane was previously immersed in anhydrous methanol for 30 seconds to be activated. A membrane transfer plate was manufactured according to the sequence of sponge-filter paper-glue-membrane-filter paper-sponge (the protein was negatively charged, and was transferred to a PVDF membrane towards the positive electrode). […]
# [1] = hippocampus and cortex of APP/PS1ΔE9 mice, Western blot (A-B in FIG. 4)
compound,measurement,setting,value
"Cc1ccc(C)c(OCCCC(C)(C)C(=O)O)c1 [Gemfibrozil, 2,2-dimethyl-5-(2,5-dimethylphenoxy) pentanoic acid]",dendritic spine density,hippocampal neurons,significantly up-regulated
same,ratio of Aβ42 and Aβ40 (soluble),"soluble Aβ; between groups, Western blot (A-B in FIG. 4)",did not change significantly
same,level of Aβ40 (soluble),soluble Aβ; [1],decreased significantly
same,level of Aβ42 (soluble),soluble Aβ; [1],decreased significantly
same,soluble Aβ,"soluble Aβ; hippocampus and cortex of APP/PS1ΔE9 mice, vs control group (A-B in FIG. 4)",significantly reduced
